The values below come from ChEMBL document CHEMBL1201862, “PubChem BioAssay data set” (2004).

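Where inhibition never reached the appropriate level, the endpoint shown equals the highest concentration tested. Otherwise, values were interpolated linearly from a five-concentration, 48-hour dose response in 96-well plates. At the GI50, growth is halved.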 The source made the active and inactive calls. Cut-off read from the data, not from the text of the source: active = GI50 up to about 1.1 µM and inactive = higher.

Test systems include ACHN; TK-10; RPMI-8226; MOLT-4; NCI-H522; A498; PC-3; M14; NCI-H23; NCI/ADR-RES; OVCAR-8; NCI-H460; SN12C; EKVX; KM12; OVCAR-3; RXF 393; SR; UACC-257; MDA-N.
Test in all cases: inhibition of tumour cell growth, NCI panel, 48 h

Regarding `O=C(O)c1cc(-c2ccc(-c3ccccc3)cc2)nc2cc3ccccc3cc12`, the GI50 is 46.6 µM (inactive) with ACHN; 58.2 µM (inactive) in the assay on TK-10; 29.6 µM (inactive) in the assay with RPMI-8226; 11.6 µM (inactive) in the assay with MOLT-4; 27.7 µM (inactive) with NCI-H522; > 100 µM (inactive) in the assay with A498. The GI50 with PC-3 was 17.5 µM (inactive); with M14, > 100 µM (inactive); in the assay on NCI-H23 it was 36.8 µM (inactive); with NCI/ADR-RES, 75.7 µM (inactive); in the assay on OVCAR-8 it was 57.1 µM (inactive); in the assay on NCI-H460, 6.35 µM (inactive). Also, the GI50 with SN12C was 61.9 µM (inactive); with EKVX it was 57.1 µM (inactive); in the assay with KM12 it was 34.3 µM (inactive); with OVCAR-3, 47.9 µM (inactive); in the assay with RXF 393 it was 27.7 µM (inactive); in the assay with SR, 5.43 µM (inactive). In addition, the GI50 in the assay on UACC-257 is > 100 µM (inactive).

With `CCCSc1ccc2[nH]c(/N=C/c3ccco3)cc2c1`, the GI50 with ACHN is 49.5 µM (inactive); in the assay with RPMI-8226 it was 0.184 µM (active); with NCI-H522, 22.2 µM (inactive); in the assay on A498 it was 34.4 µM (inactive); with PC-3 it was 43.7 µM (inactive); in the assay with M14, 44.6 µM (inactive). Besides, the GI50 in the assay on NCI-H23 is 33.8 µM (inactive); in the assay with NCI/ADR-RES, 27.5 µM (inactive); with OVCAR-8 it was 31.5 µM (inactive); in the assay on SN12C, 29.9 µM (inactive); in the assay with EKVX, 3.77 µM (inactive); in the assay with KM12 it was 49.4 µM (inactive). The GI50 in the assay with OVCAR-3 was 29.8 µM (inactive); in the assay on RXF 393 it was 22.3 µM (inactive); in the assay on SR, 1.68 µM (inactive); in the assay on UACC-257, 33.6 µM (inactive).

As to `COc1ccc(NC(=S)N/N=C/c2c(C)n(C)n(-c3ccccc3)c2=O)cc1`, the GI50 in the assay on ACHN is 34.7 µM (inactive); in the assay with TK-10, 53.3 µM (inactive); with RPMI-8226 it was > 100 µM (inactive); with MOLT-4, > 100 µM (inactive); in the assay with A498, 17.2 µM (inactive); in the assay on PC-3, 69.8 µM (inactive). Moreover, the GI50 in the assay with M14 is > 100 µM (inactive); in the assay with NCI-H23 it was 31.5 µM (inactive); with NCI/ADR-RES, 42.9 µM (inactive); in the assay on OVCAR-8 it was 20.7 µM (inactive); with EKVX, 42.8 µM (inactive); in the assay on KM12, > 100 µM (inactive). Besides, the results for the GI50 with RXF 393, with SR and in the assay with UACC-257 were 23 µM (inactive), 78.5 µM (inactive) and > 100 µM (inactive), respectively.

As for `CSc1nc2c(c(=O)n1C)N=C(c1ccc([N+](=O)[O-])cc1)CC(c1ccccc1)N2` (configuration not stated), the GI50 with ACHN is 95.9 µM (inactive); in the assay with RPMI-8226, > 100 µM (inactive); in the assay on MOLT-4 it was 33 µM (inactive); in the assay with NCI-H522, 48.8 µM (inactive); in the assay with A498 it was > 100 µM (inactive); in the assay on PC-3, > 100 µM (inactive). Further, the GI50 is > 100 µM (inactive) in the assay on M14; 99.8 µM (inactive) in the assay on NCI-H23; > 100 µM (inactive) in the assay with NCI/ADR-RES; > 100 µM (inactive) with OVCAR-8; 90.6 µM (inactive) in the assay with NCI-H460; > 100 µM (inactive) in the assay on SN12C. For the same compound, the GI50 with EKVX is > 100 µM (inactive); in the assay on KM12 it was 84.3 µM (inactive); in the assay with OVCAR-3, > 100 µM (inactive); in the assay on RXF 393, > 100 µM (inactive); with SR, > 100 µM (inactive); with UACC-257 it was > 100 µM (inactive).

`CC(C)(C)OC(=O)N1CCCC1C(=O)NCCNc1ccc(NCCNC(=O)C2CCCN2C(=O)OC(C)(C)C)c2c1C(=O)c1ccccc1C2=O` (configuration not stated): the GI50 is 15.4 µM (inactive) in the assay on ACHN; 19.1 µM (inactive) with TK-10; < 0.01 µM (active) in the assay on RPMI-8226; 9.86 µM (inactive) with MOLT-4; 13 µM (inactive) with NCI-H522; 11.1 µM (inactive) in the assay with PC-3. The GI50 in the assay with M14 is 15.8 µM (inactive); in the assay with NCI-H23 it was 15.6 µM (inactive); with NCI/ADR-RES, 10.4 µM (inactive); in the assay with OVCAR-8, 5.83 µM (inactive); in the assay on EKVX it was 27 µM (inactive); in the assay on KM12 it was 12.2 µM (inactive). Moreover, the figures for the GI50 with OVCAR-3, with SR and in the assay with UACC-257 were 14.1 µM (inactive), 14.3 µM (inactive) and 14.5 µM (inactive), respectively.

On to `C=C1C(=O)OC2C1CC(OC(C)=O)/C(C)=C/CCC1(C)OC21` (configuration not stated), for which the GI50 in the assay on ACHN, with MDA-N, with RPMI-8226, in the assay with MOLT-4, in the assay on NCI-H522 and in the assay with PC-3 was > 100 µM (inactive) each time. Moreover, the GI50 in the assay on M14, with NCI-H23, in the assay on NCI/ADR-RES, with OVCAR-8, in the assay with NCI-H460 and in the assay with SN12C was > 100 µM (inactive) throughout. For the same compound, the GI50 in the assay on EKVX, in the assay on KM12, in the assay on OVCAR-3 and in the assay with UACC-257 was > 100 µM (inactive) in each case.

Turning to `COC1OC2COC(C)(C)OC2C2OC(C)(C)OC12` (configuration not stated), the GI50 is 41.8 µM (inactive) with ACHN; 69.5 µM (inactive) in the assay on MDA-N; 49.8 µM (inactive) with TK-10; 17 µM (inactive) with RPMI-8226; 25.3 µM (inactive) in the assay with MOLT-4; > 100 µM (inactive) with NCI-H522. In addition, the GI50 with A498 is 55.2 µM (inactive); in the assay on PC-3, 80.5 µM (inactive); with M14 it was > 100 µM (inactive); in the assay with NCI-H23, 82.4 µM (inactive); with NCI/ADR-RES it was 63.8 µM (inactive); in the assay on OVCAR-8, 55.7 µM (inactive). Also, the GI50 in the assay on SN12C was 21 µM (inactive); in the assay on EKVX it was 25.7 µM (inactive); in the assay with KM12, > 100 µM (inactive); with OVCAR-3, > 100 µM (inactive); in the assay with RXF 393, 23.7 µM (inactive); with UACC-257, 63.2 µM (inactive).

`CCCC[N+](CCCC)(CCCC)CCCC.O=S(=O)([O-])ON=C1c2ccccc2-c2ccccc21`: the GI50 in the assay with ACHN is > 100 µM (inactive); in the assay with TK-10 it was > 100 µM (inactive); in the assay with RPMI-8226, 50.8 µM (inactive); in the assay with MOLT-4, > 100 µM (inactive); with NCI-H522 it was 47.2 µM (inactive); in the assay on A498, > 100 µM (inactive). Further, the GI50 with PC-3, with M14, in the assay on NCI-H23, with NCI/ADR-RES, in the assay with OVCAR-8 and in the assay on NCI-H460 was > 100 µM (inactive) in each case. Further, the GI50 in the assay with SN12C, with EKVX, in the assay with KM12, with OVCAR-3, in the assay with RXF 393 and in the assay with SR was > 100 µM (inactive) each time. The GI50 in the assay with UACC-257 is > 100 µM (inactive).

For the compound `O=C(/C(=C\c1ccccc1)CN1CCOCC1)c1ccc(Br)cc1`, the GI50 was 1.75 µM (inactive) in the assay with ACHN; 5.37 µM (inactive) with TK-10; 2.43 µM (inactive) in the assay on RPMI-8226; 2.33 µM (inactive) in the assay on MOLT-4; 1.28 µM (inactive) in the assay on NCI-H522; 6.12 µM (inactive) with A498. In addition, the GI50 in the assay on M14 was 1.78 µM (inactive); in the assay on NCI-H23 it was 3.24 µM (inactive); in the assay on OVCAR-8, 1.61 µM (inactive); in the assay on NCI-H460 it was 3.01 µM (inactive); in the assay with SN12C, 2.06 µM (inactive); with EKVX, 3.06 µM (inactive). In addition, the GI50 with KM12 is 1.87 µM (inactive); in the assay with OVCAR-3, 2.44 µM (inactive); in the assay on RXF 393, 2.51 µM (inactive); with SR, 1.16 µM (inactive); in the assay on UACC-257 it was 2.59 µM (inactive).

On to `CC(C)c1cccc(C(C)C)c1NC(=O)C(=O)CC(=O)CC(c1ccccc1)c1c(O)oc2ccccc2c1=O` (configuration not stated), for which the GI50 with ACHN, in the assay with TK-10, in the assay with RPMI-8226, in the assay with MOLT-4, in the assay with NCI-H522 and with A498 was > 100 µM (inactive) in each case. In addition, the GI50 in the assay with M14, in the assay on NCI-H23, with OVCAR-8, in the assay with NCI-H460, in the assay with SN12C and with EKVX was > 100 µM (inactive) each time. The GI50 with KM12, with OVCAR-3, in the assay on RXF 393, in the assay with SR and in the assay on UACC-257 was > 100 µM (inactive) in each case.

For the compound `Cc1c(S(=O)(=O)N/C(=N\O)Nc2ccc(Cl)cc2)sc2ccc(Cl)cc12`, the GI50 in the assay with ACHN was 15.2 µM (inactive); with MDA-N, 18.2 µM (inactive); in the assay with TK-10, 16.9 µM (inactive); in the assay on MOLT-4, 27.2 µM (inactive); in the assay with NCI-H522, 9.91 µM (inactive); with PC-3, 17.1 µM (inactive). Moreover, the GI50 was 16.9 µM (inactive) in the assay on M14; 18 µM (inactive) with NCI-H23; 18 µM (inactive) in the assay on NCI/ADR-RES; 17.3 µM (inactive) with OVCAR-8; 24.8 µM (inactive) with NCI-H460; 20.3 µM (inactive) in the assay with SN12C. The GI50 is 12.3 µM (inactive) with EKVX; 18.4 µM (inactive) with KM12; 11.3 µM (inactive) with OVCAR-3; 22.3 µM (inactive) in the assay on RXF 393; 16.4 µM (inactive) in the assay with UACC-257.
